Reference: PubChem BioAssay (NCI)
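Results reflect a 48-hour exposure of cells in 96-well plates to compound at five concentrations. TGI: concentration producing complete growth inhibition.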

How the values were obtained:
Test in all cases: NCI anticancer screen, dose series, 48 h
SNB-19 CNS = tested on: SNB-19 CNS
MDA-N = tested on: MDA-N
NCI-H226 lung = tested on: NCI-H226 lung
SF-539 CNS = tested on: SF-539 CNS
RPMI-8226 leukemia = tested on: RPMI-8226 leukemia
SR leukemia = tested on: SR leukemia
OVCAR-3 ovarian = tested on: OVCAR-3 ovarian
HL-60(TB) leukemia = tested on: HL-60(TB) leukemia
M14 melanoma = tested on: M14 melanoma
TK-10 renal = tested on: TK-10 renal
UACC-257 melanoma = tested on: UACC-257 melanoma
CCRF-CEM leukemia = tested on: CCRF-CEM leukemia
MALME-3M melanoma = tested on: MALME-3M melanoma
HS 578T breast = tested on: HS 578T breast
ACHN renal = tested on: ACHN renal
786-0 renal = tested on: 786-0 renal
HCT-116 colon = tested on: HCT-116 colon
A549 NSCLC = tested on: A549 NSCLC
MDA-MB-435 = tested on: MDA-MB-435
UACC-62 melanoma = tested on: UACC-62 melanoma
HCT-15 colon = tested on: HCT-15 colon
MDA-MB-231 breast = tested on: MDA-MB-231 breast
NCI-H522 lung = tested on: NCI-H522 lung
HCC-2998 colon = tested on: HCC-2998 colon
MOLT-4 leukemia = tested on: MOLT-4 leukemia
SNB-75 CNS = tested on: SNB-75 CNS
SK-MEL-5 melanoma = tested on: SK-MEL-5 melanoma
SW-620 colon = tested on: SW-620 colon
T-47D breast = tested on: T-47D breast
NCI-H23 lung = tested on: NCI-H23 lung
MCF7 breast = tested on: MCF7 breast
PC-3 prostate = tested on: PC-3 prostate
IGROV1 ovarian = tested on: IGROV1 ovarian
OVCAR-4 ovarian = tested on: OVCAR-4 ovarian
COLO 205 colon = tested on: COLO 205 colon
LOX IMVI melanoma = tested on: LOX IMVI melanoma
OVCAR-8 ovarian = tested on: OVCAR-8 ovarian
SN12C renal = tested on: SN12C renal
SF-295 CNS = tested on: SF-295 CNS
SK-OV-3 ovarian = tested on: SK-OV-3 ovarian
K-562 leukemia = tested on: K-562 leukemia
HOP-62 NSCLC = tested on: HOP-62 NSCLC
RXF 393 renal = tested on: RXF 393 renal
HOP-92 NSCLC = tested on: HOP-92 NSCLC
SF-268 CNS = tested on: SF-268 CNS
SK-MEL-28 melanoma = tested on: SK-MEL-28 melanoma
KM12 colon = tested on: KM12 colon
EKVX NSCLC = tested on: EKVX NSCLC
HT29 colon = tested on: HT29 colon
CAKI-1 renal = tested on: CAKI-1 renal
DU-145 prostate = tested on: DU-145 prostate
U251 CNS = tested on: U251 CNS
BT-549 breast = tested on: BT-549 breast
SK-MEL-2 melanoma = tested on: SK-MEL-2 melanoma
NCI/ADR-RES ovarian = tested on: NCI/ADR-RES ovarian
OVCAR-5 ovarian = tested on: OVCAR-5 ovarian
UO-31 renal = tested on: UO-31 renal
NCI-H460 lung = tested on: NCI-H460 lung
A498 renal = tested on: A498 renal

`O=C1NC(N2CCCC(CO)C2)=N/C1=C\c1ccc(Cl)cc1` (stereo not drawn) gave a TGI (SNB-19 CNS) of over 100 µM, a TGI (MDA-N) of over 100 µM and a TGI (NCI-H226 lung) of over 100 µM. It also gave a TGI (SF-539 CNS) of over 100 µM, a TGI (RPMI-8226 leukemia) of over 100 µM and a TGI (SR leukemia) of over 100 µM. For the same compound, the TGI (OVCAR-3 ovarian) was over 100 µM, the TGI (HL-60(TB) leukemia) was over 100 µM and the TGI (M14 melanoma) was over 100 µM. It also gave a TGI (TK-10 renal) of over 100 µM, a TGI (UACC-257 melanoma) of over 100 µM and a TGI (CCRF-CEM leukemia) of over 100 µM. The TGI (MALME-3M melanoma) was over 100 µM, the TGI (HS 578T breast) was over 100 µM and the TGI (ACHN renal) was over 100 µM. The TGI (786-0 renal) was over 100 µM, the TGI (HCT-116 colon) was over 100 µM and the TGI (A549 NSCLC) was over 100 µM. The TGI (MDA-MB-435) was over 100 µM, the TGI (UACC-62 melanoma) was over 100 µM and the TGI (HCT-15 colon) was over 100 µM. It also gave a TGI (MDA-MB-231 breast) of over 100 µM, a TGI (NCI-H522 lung) of over 100 µM and a TGI (HCC-2998 colon) of over 100 µM. For the same compound, the TGI (MOLT-4 leukemia) was over 100 µM, the TGI (SNB-75 CNS) was over 100 µM and the TGI (SK-MEL-5 melanoma) was over 100 µM. It also gave a TGI (SW-620 colon) of over 100 µM, a TGI (T-47D breast) of over 100 µM and a TGI (NCI-H23 lung) of over 100 µM. It also gave a TGI (MCF7 breast) of over 100 µM, a TGI (PC-3 prostate) of over 100 µM and a TGI (IGROV1 ovarian) of over 100 µM. The TGI (OVCAR-4 ovarian) was over 100 µM, the TGI (COLO 205 colon) was over 100 µM and the TGI (LOX IMVI melanoma) was over 100 µM. The TGI (OVCAR-8 ovarian) was over 100 µM, the TGI (SN12C renal) was over 100 µM and the TGI (SF-295 CNS) was over 100 µM. The TGI (SK-OV-3 ovarian) was over 100 µM, the TGI (K-562 leukemia) was over 100 µM and the TGI (HOP-62 NSCLC) was over 100 µM. For the same compound, the TGI (RXF 393 renal) was over 100 µM, the TGI (HOP-92 NSCLC) was over 100 µM and the TGI (SF-268 CNS) was over 100 µM. The TGI (SK-MEL-28 melanoma) was over 100 µM, the TGI (KM12 colon) was over 100 µM and the TGI (EKVX NSCLC) was over 100 µM. For the same compound, the TGI (HT29 colon) was over 100 µM, the TGI (CAKI-1 renal) was over 100 µM and the TGI (DU-145 prostate) was over 100 µM. The TGI (U251 CNS) was over 100 µM, the TGI (BT-549 breast) was over 100 µM and the TGI (SK-MEL-2 melanoma) was over 100 µM. For the same compound, the TGI (NCI/ADR-RES ovarian) was over 100 µM, the TGI (OVCAR-5 ovarian) was over 100 µM and the TGI (UO-31 renal) was over 100 µM.

`COc1cccc2[nH]c(-c3ccccn3)nc12` showed a TGI (SNB-19 CNS) of over 100 µM, a TGI (MDA-N) of over 100 µM and a TGI (NCI-H226 lung) of over 100 µM. The TGI (SF-539 CNS) was over 100 µM, the TGI (RPMI-8226 leukemia) was over 100 µM and the TGI (SR leukemia) was over 100 µM. For the same compound, the TGI (OVCAR-3 ovarian) was over 100 µM, the TGI (M14 melanoma) was over 100 µM and the TGI (TK-10 renal) was over 100 µM. For the same compound, the TGI (UACC-257 melanoma) was over 100 µM, the TGI (MALME-3M melanoma) was over 100 µM and the TGI (HS 578T breast) was over 100 µM. The TGI (ACHN renal) was over 100 µM, the TGI (786-0 renal) was over 100 µM and the TGI (HCT-116 colon) was over 100 µM. For the same compound, the TGI (A549 NSCLC) was over 100 µM, the TGI (MDA-MB-435) was over 100 µM and the TGI (UACC-62 melanoma) was over 100 µM. The TGI (HCT-15 colon) was over 100 µM, the TGI (MDA-MB-231 breast) was over 100 µM and the TGI (NCI-H522 lung) was over 100 µM. It also gave a TGI (NCI-H460 lung) of over 100 µM, a TGI (HCC-2998 colon) of over 100 µM and a TGI (SNB-75 CNS) of over 100 µM. For the same compound, the TGI (SK-MEL-5 melanoma) was over 100 µM, the TGI (SW-620 colon) was over 100 µM and the TGI (T-47D breast) was over 100 µM. It also gave a TGI (NCI-H23 lung) of over 100 µM, a TGI (MCF7 breast) of over 100 µM and a TGI (PC-3 prostate) of over 100 µM. For the same compound, the TGI (IGROV1 ovarian) was over 100 µM, the TGI (OVCAR-4 ovarian) was over 100 µM and the TGI (COLO 205 colon) was over 100 µM. For the same compound, the TGI (A498 renal) was over 100 µM, the TGI (LOX IMVI melanoma) was over 100 µM and the TGI (OVCAR-8 ovarian) was over 100 µM. It also gave a TGI (SN12C renal) of over 100 µM, a TGI (SF-295 CNS) of over 100 µM and a TGI (SK-OV-3 ovarian) of over 100 µM. It also gave a TGI (K-562 leukemia) of over 100 µM, a TGI (HOP-62 NSCLC) of over 100 µM and a TGI (RXF 393 renal) of over 100 µM. For the same compound, the TGI (HOP-92 NSCLC) was over 100 µM, the TGI (SF-268 CNS) was over 100 µM and the TGI (SK-MEL-28 melanoma) was over 100 µM. For the same compound, the TGI (KM12 colon) was over 100 µM, the TGI (EKVX NSCLC) was over 100 µM and the TGI (HT29 colon) was over 100 µM. For the same compound, the TGI (CAKI-1 renal) was over 100 µM, the TGI (DU-145 prostate) was over 100 µM and the TGI (U251 CNS) was over 100 µM. For the same compound, the TGI (BT-549 breast) was over 100 µM, the TGI (SK-MEL-2 melanoma) was over 100 µM and the TGI (NCI/ADR-RES ovarian) was 73.8 µM. The TGI (OVCAR-5 ovarian) was over 100 µM and the TGI (UO-31 renal) was over 100 µM.
